From patent publication US20260224563A1, “CRYSTALLINE FORMS OF 6-(3-((5-CHLORO-2-METHOXYPYRIDINE)-3-SULFONAMIDO)-2,6-DIFLUOROPHENYL)-N-METHYLIMIDAZO[1,5-A]PYRAZINE-1-CARBOXAMIDE AND METHODS FOR USING THE SAME” (HIBERCELL, INC., priority 2023, published 2026)
Counter-ions that a name gives are not always drawn.

Experiment: Slurry study of potassium salt Form III in organic solvents and water (XRPD)
Assay type: physicochemical
Procedure: A slurry study of Form III of the potassium salt in an array of solvents was conducted at 25° C. and 50° C. Approximately 20 mg of Form III of the potassium salt was suspended in 0.5 mL of a solvent (EtOH, IPA, NBA, MEK, acetone, MTBE, EtOAc, IPAc, heptane, DCM, THE, MeCN, and water) and stirred at 25° C. or 50° C. for seven days. Then, the solid sample was collected by vacuum filtration and was analyzed by XRPD.

Result at 3 days (XRPD) (slurry in Acetone, 25° C.): Potassium salt Form III | Result at 7 days (XRPD) (slurry in Acetone, 25° C.): Potassium salt Form III | Result at 3 days (XRPD) (slurry in DCM, 25° C.): Potassium salt Form III | Result at 7 days (XRPD) (slurry in DCM, 25° C.): Potassium salt Form III | Result at 3 days (XRPD) (slurry in DCM, 50° C.): Potassium salt Form III | Result at 7 days (XRPD) (slurry in DCM, 50° C.): Potassium salt Form III | Result at 3 days (XRPD) (slurry in EtOAc, 25° C.): Potassium salt Form III | Result at 7 days (XRPD) (slurry in EtOAc, 25° C.): Potassium salt Form III | Result at 3 days (XRPD) (slurry in EtOAc, 50° C.): Potassium salt Form III | Result at 7 days (XRPD) (slurry in EtOAc, 50° C.): Potassium salt Form III | Result at 3 days (XRPD) (slurry in Heptane, 25° C.): Potassium salt Form III | Result at 7 days (XRPD) (slurry in Heptane, 25° C.): Potassium salt Form III | Result at 3 days (XRPD) (slurry in Heptane, 50° C.): Potassium salt Form III | Result at 7 days (XRPD) (slurry in Heptane, 50° C.): Potassium salt Form III | Result at 3 days (XRPD) (slurry in IPA, 25° C.): Potassium salt Form III | Result at 7 days (XRPD) (slurry in IPA, 25° C.): Potassium salt Form III | Result at 3 days (XRPD) (slurry in IPA, 50° C.): Potassium salt Form I | Result at 7 days (XRPD) (slurry in IPA, 50° C.): Potassium salt Form I | Result at 3 days (XRPD) (slurry in IPAc, 25° C.): Potassium salt Form III | Result at 7 days (XRPD) (slurry in IPAc, 25° C.): Potassium salt Form III | Result at 3 days (XRPD) (slurry in IPAc, 50° C.): Potassium salt Form III | Result at 7 days (XRPD) (slurry in IPAc, 50° C.): Potassium salt Form III | Result at 3 days (XRPD) (slurry in MEK, 25° C.): Potassium salt Form III | Result at 7 days (XRPD) (slurry in MEK, 25° C.): Potassium salt Form III | Result at 3 days (XRPD) (slurry in MEK, 50° C.): Potassium salt Form III | Result at 7 days (XRPD) (slurry in MEK, 50° C.): Potassium salt Form III | Result at 3 days (XRPD) (slurry in MTBE, 25° C.): Potassium salt Form III | Result at 7 days (XRPD) (slurry in MTBE, 25° C.): Potassium salt Form III | Result at 3 days (XRPD) (slurry in MTBE, 50° C.): Potassium salt Form III | Result at 7 days (XRPD) (slurry in MTBE, 50° C.): Potassium salt Form III | Result at 3 days (XRPD) (slurry in MeCN, 25° C.): Potassium salt Form III | Result at 7 days (XRPD) (slurry in MeCN, 25° C.): Potassium salt Form III | Result at 3 days (XRPD) (slurry in MeCN, 50° C.): Potassium salt Form I | Result at 7 days (XRPD) (slurry in MeCN, 50° C.): Potassium salt Form I | Result at 3 days (XRPD) (slurry in NBA, 25° C.): Potassium salt Form III | Result at 7 days (XRPD) (slurry in NBA, 25° C.): Potassium salt Form III | Result at 3 days (XRPD) (slurry in NBA, 50° C.): Potassium salt Form III | Result at 7 days (XRPD) (slurry in NBA, 50° C.): Potassium salt Form III | Result at 7 days (XRPD) (slurry in THF, 25° C.): Potassium salt Form III | Result at 7 days (XRPD) (slurry in THF, 50° C.): Potassium salt Form III
SMILES: CNC(=O)c1ncn2cc(-c3c(F)ccc(NS(=O)(=O)c4cc(Cl)cnc4OC)c3F)ncc12 [Potassium salt Form III, 6-(3-((5-chloro-2-methoxypyridine)-3-sulfonamido)-2,6-difluorophenyl)-N-methylimidazo[1,5-a]pyrazine-1-carboxamide]
